The source made the active and inactive calls. No cut-off for these calls is given here.
Assays:
[1] = system: Replicase polyprotein 1ab (Severe acute respiratory syndrome coronavirus 2), P0DTD1 [N72A]; assay: Inhibition of recombinant SARS-COV2 main protease N72A mutant expressed in Escherichia coli BL21 (DE3) using DABCYL-KTSAVLQSGFRKME-EDANS-NH2 as fluorogenic substrate at 16 to 100 nM preincubated for 10 mins followed by substrate addition by FRET assay; settings: dose 16-100 nM
[2] = system: Replicase polyprotein 1ab (Severe acute respiratory syndrome coronavirus 2), P0DTD1 [V186A]; assay: Inhibition of recombinant SARS-COV2 main protease V186A mutant expressed in Escherichia coli BL21 (DE3) using DABCYL-KTSAVLQSGFRKME-EDANS-NH2 as fluorogenic substrate at 16 to 100 nM preincubated for 10 mins followed by substrate addition by FRET assay; settings: dose 16-100 nM
[3] = system: Replicase polyprotein 1ab (Severe acute respiratory syndrome coronavirus 2), P0DTD1 [L50A]; assay: Inhibition of recombinant SARS-COV2 main protease L50A mutant expressed in Escherichia coli BL21 (DE3) using DABCYL-KTSAVLQSGFRKME-EDANS-NH2 as fluorogenic substrate at 16 to 100 nM preincubated for 10 mins followed by substrate addition by FRET assay; settings: dose 16-100 nM
[4] = system: Replicase polyprotein 1ab (Severe acute respiratory syndrome coronavirus 2), P0DTD1 [N142A]; assay: Inhibition of recombinant SARS-COV2 main protease N142A mutant expressed in Escherichia coli BL21 (DE3) using DABCYL-KTSAVLQSGFRKME-EDANS-NH2 as fluorogenic substrate at 16 to 100 nM preincubated for 10 mins followed by substrate addition by FRET assay; settings: dose 16-100 nM
[5] = system: Replicase polyprotein 1ab (Severe acute respiratory syndrome coronavirus 2), P0DTD1 [N142L]; assay: Inhibition of SARS-COV2 main protease N142L mutant assessed as fold increase in IC50
[6] = system: Replicase polyprotein 1ab (Severe acute respiratory syndrome coronavirus 2), P0DTD1 [S46A]; assay: Inhibition of recombinant SARS-COV2 main protease S46A mutant expressed in Escherichia coli BL21 (DE3) using DABCYL-KTSAVLQSGFRKME-EDANS-NH2 as fluorogenic substrate at 16 to 100 nM preincubated for 10 mins followed by substrate addition by FRET assay; settings: dose 16-100 nM
[7] = system: Replicase polyprotein 1ab (Severe acute respiratory syndrome coronavirus 2), P0DTD1 [UNDEFINED MUTATION]; assay: Inhibition of recombinant SARS-COV2 main protease N72TMSK mutant expressed in Escherichia coli BL21 (DE3) using DABCYL-KTSAVLQSGFRKME-EDANS-NH2 as fluorogenic substrate at 16 to 1000 nM preincubated for 10 mins followed by substrate addition by FRET assay; settings: dose 16-1000 nM
[8] = system: Replicase polyprotein 1ab (Severe acute respiratory syndrome coronavirus 2), P0DTD1 [UNDEFINED MUTATION]; assay: Inhibition of recombinant SARS-COV2 main protease L50TMSK mutant expressed in Escherichia coli BL21 (DE3) using DABCYL-KTSAVLQSGFRKME-EDANS-NH2 as fluorogenic substrate at 16 to 1000 nM preincubated for 10 mins followed by substrate addition by FRET assay; settings: dose 16-1000 nM
[9] = system: Replicase polyprotein 1ab (Severe acute respiratory syndrome coronavirus 2), P0DTD1 [UNDEFINED MUTATION]; assay: Inhibition of recombinant SARS-COV2 main protease A255TMSK mutant expressed in Escherichia coli BL21 (DE3) using DABCYL-KTSAVLQSGFRKME-EDANS-NH2 as fluorogenic substrate at 16 to 1000 nM preincubated for 10 mins followed by substrate addition by FRET assay; settings: dose 16-1000 nM
[10] = system: Replicase polyprotein 1ab (Severe acute respiratory syndrome coronavirus 2), P0DTD1 [UNDEFINED MUTATION]; assay: Inhibition of recombinant SARS-COV2 main protease V186TMSK mutant expressed in Escherichia coli BL21 (DE3) using DABCYL-KTSAVLQSGFRKME-EDANS-NH2 as fluorogenic substrate at 16 to 1000 nM preincubated for 10 mins followed by substrate addition by FRET assay; settings: dose 16-1000 nM
[11] = system: Replicase polyprotein 1ab (Severe acute respiratory syndrome coronavirus 2), P0DTD1 [UNDEFINED MUTATION]; assay: Inhibition of recombinant SARS-COV2 main protease S46TMSK mutant expressed in Escherichia coli BL21 (DE3) using DABCYL-KTSAVLQSGFRKME-EDANS-NH2 as fluorogenic substrate at 16 to 1000 nM preincubated for 10 mins followed by substrate addition by FRET assay; settings: dose 16-1000 nM
[12] = system: Replicase polyprotein 1ab (Severe acute respiratory syndrome coronavirus 2), P0DTD1 [UNDEFINED MUTATION]; assay: Inhibition of recombinant SARS-COV2 main protease N142TMSK mutant expressed in Escherichia coli BL21 (DE3) using DABCYL-KTSAVLQSGFRKME-EDANS-NH2 as fluorogenic substrate at 16 to 1000 nM preincubated for 10 mins followed by substrate addition by FRET assay; settings: dose 16-1000 nM
[13] = system: Replicase polyprotein 1ab (Severe acute respiratory syndrome coronavirus 2), P0DTD1 [UNDEFINED MUTATION]; assay: Activation of recombinant SARS-COV2 main protease I213TFAK mutant expressed in Escherichia coli BL21 (DE3) using DABCYL-KTSAVLQSGFRKME-EDANS-NH2 as fluorogenic substrate at 15 uM preincubated for 10 mins followed by substrate addition by FRET assay; settings: filed as activator
[14] = system: Replicase polyprotein 1ab (Severe acute respiratory syndrome coronavirus 2), P0DTD1 [UNDEFINED MUTATION]; assay: Activation of recombinant SARS-COV2 main protease I213TMSK mutant expressed in Escherichia coli BL21 (DE3) using DABCYL-KTSAVLQSGFRKME-EDANS-NH2 as fluorogenic substrate at 15 uM preincubated for 10 mins followed by substrate addition by FRET assay; settings: filed as activator
[15] = system: Replicase polyprotein 1ab (Severe acute respiratory syndrome coronavirus 2), P0DTD1 [UNDEFINED MUTATION]; assay: Activation of recombinant SARS-COV2 main protease V297TMSK mutant expressed in Escherichia coli BL21 (DE3) using DABCYL-KTSAVLQSGFRKME-EDANS-NH2 as fluorogenic substrate at 1.5 to 50 uM preincubated for 10 mins followed by substrate addition by FRET assay; settings: filed as activator, dose 1.5-50 µM
[16] = system: Replicase polyprotein 1ab (Severe acute respiratory syndrome coronavirus 2), P0DTD1 [UNDEFINED MUTATION]; assay: Activation of recombinant SARS-COV2 main protease V297TFAK mutant expressed in Escherichia coli BL21 (DE3) using DABCYL-KTSAVLQSGFRKME-EDANS-NH2 as fluorogenic substrate at 1.5 to 50 uM preincubated for 10 mins followed by substrate addition by FRET assay; settings: filed as activator, dose 1.5-50 µM
[17] = system: Replicase polyprotein 1ab (Severe acute respiratory syndrome coronavirus 2), P0DTD1 [UNDEFINED MUTATION]; assay: Inhibition of recombinant SARS-COV2 main protease N142TMSK mutant expressed in Escherichia coli BL21 (DE3) using DABCYL-KTSAVLQSGFRKME-EDANS-NH2 as fluorogenic substrate at 5 to 50 uM preincubated for 10 mins followed by substrate addition by FRET assay; settings: dose 5-50 µM
[18] = system: Replicase polyprotein 1ab (Severe acute respiratory syndrome coronavirus 2), P0DTD1 [UNDEFINED MUTATION]; assay: Inhibition of recombinant SARS-COV2 main protease L232TMSK mutant expressed in Escherichia coli BL21 (DE3) using DABCYL-KTSAVLQSGFRKME-EDANS-NH2 as fluorogenic substrate at 5 to 50 uM preincubated for 10 mins followed by substrate addition by FRET assay; settings: dose 5-50 µM
[19] = system: Replicase polyprotein 1ab (Severe acute respiratory syndrome coronavirus 2), P0DTD1 [UNDEFINED MUTATION]; assay: Inhibition of recombinant SARS-COV2 main protease N72TMSK mutant expressed in Escherichia coli BL21 (DE3) using DABCYL-KTSAVLQSGFRKME-EDANS-NH2 as fluorogenic substrate at 5 to 50 uM preincubated for 10 mins followed by substrate addition by FRET assay; settings: dose 5-50 µM
[20] = system: Replicase polyprotein 1ab (Severe acute respiratory syndrome coronavirus 2), P0DTD1 [UNDEFINED MUTATION]; assay: Inhibition of recombinant SARS-COV2 main protease V186TMSK mutant expressed in Escherichia coli BL21 (DE3) using DABCYL-KTSAVLQSGFRKME-EDANS-NH2 as fluorogenic substrate at 5 to 50 uM preincubated for 10 mins followed by substrate addition by FRET assay; settings: dose 5-50 µM
[21] = system: Replicase polyprotein 1ab (Severe acute respiratory syndrome coronavirus 2), P0DTD1 [UNDEFINED MUTATION]; assay: Inhibition of recombinant SARS-COV2 main protease L50TMSK mutant expressed in Escherichia coli BL21 (DE3) using DABCYL-KTSAVLQSGFRKME-EDANS-NH2 as fluorogenic substrate at 5 to 50 uM preincubated for 10 mins followed by substrate addition by FRET assay; settings: dose 5-50 µM
[22] = system: Replicase polyprotein 1ab (Severe acute respiratory syndrome coronavirus 2), P0DTD1 [UNDEFINED MUTATION]; assay: Inhibition of recombinant SARS-COV2 main protease S46TMSK mutant expressed in Escherichia coli BL21 (DE3) using DABCYL-KTSAVLQSGFRKME-EDANS-NH2 as fluorogenic substrate at 5 to 50 uM preincubated for 10 mins followed by substrate addition by FRET assay; settings: dose 5-50 µM
[23] = system: Replicase polyprotein 1ab (Severe acute respiratory syndrome coronavirus 2), P0DTD1 [UNDEFINED MUTATION]; assay: Inhibition of recombinant SARS-COV2 main protease A255TMSK mutant expressed in Escherichia coli BL21 (DE3) using DABCYL-KTSAVLQSGFRKME-EDANS-NH2 as fluorogenic substrate at 5 to 50 uM preincubated for 10 mins followed by substrate addition by FRET assay; settings: dose 5-50 µM
[24] = system: Replicase polyprotein 1ab (Severe acute respiratory syndrome coronavirus 2), P0DTD1 [UNDEFINED MUTATION]; assay: Inhibition of recombinant SARS-COV2 main protease A191TMSK mutant expressed in Escherichia coli BL21 (DE3) using DABCYL-KTSAVLQSGFRKME-EDANS-NH2 as fluorogenic substrate at 5 to 50 uM preincubated for 10 mins followed by substrate addition by FRET assay; settings: dose 5-50 µM

SMILES: CC(=O)[C@@H]1CSCC(=O)N[C@H](Cc2ccc(O)cc2)C(=O)N[C@@H](CC(C)C)C(=O)N[C@@H](CCC(N)=O)C(=O)N[C@@H](Cc2ccc(O)cc2)C(=O)N[C@@H](C)C(=O)N[C@@H](C(C)C)C(=O)N[C@@H](CC(C)C)C(=O)N[C@@H](CCCNC(=N)N)C(=O)N[C@@H](Cc2c[nH]cn2)C(=O)N[C@@H](CCCCN)C(=O)N[C@@H](CCCNC(=N)N)C(=O)N[C@@H](CCCNC(=N)N)C(=O)N[C@@H](CCC(=O)O)C(=O)C1
- inhibition [1]: Dose-Dependent Effect
- inhibition [2]: Dose-Dependent Effect
- inhibition [3]: Dose-Dependent Effect
- inhibition [4]: Dose-Dependent Effect
- fold change (FC) [5]: 5
- inhibition [6]: Dose-Dependent Effect
- inhibition [7]: Dose-Dependent Effect
- inhibition [8]: Dose-Dependent Effect
- inhibition [9]: Dose-Dependent Effect
- inhibition [10]: Dose-Dependent Effect
- inhibition [11]: Dose-Dependent Effect
- inhibition [12]: Dose-Dependent Effect

SMILES: CCOc1cc2ncc(C#N)c(Nc3ccc(F)c(Cl)c3)c2cc1NC(=O)/C=C/CN(C)C [PELITINIB]
- Activity [13]: Active
- Activity [14]: Active
- Activity [15]: Dose-Dependent Effect
- Activity [16]: Dose-Dependent Effect

SMILES: CCCC[C@@H](C=O)NC(=O)[C@H](CC(C)C)NC(=O)OCc1ccccc1
- inhibition [17]: Dose-Dependent Effect
- inhibition [18]: Dose-Dependent Effect
- inhibition [19]: Dose-Dependent Effect
- inhibition [20]: Dose-Dependent Effect
- inhibition [21]: Dose-Dependent Effect
- inhibition [22]: Dose-Dependent Effect
- inhibition [23]: Dose-Dependent Effect
- inhibition [24]: Dose-Dependent Effect

From ChEMBL document CHEMBL5380815, “Probing Ligand Binding Sites on Large Proteins by Nuclear Magnetic Resonance Spectroscopy of Genetically Encoded Non-Canonical Amino Acids” (J Med Chem, 2023)
